Tested on: MV-4-11 cells
Experiment: Gene expression microarray analysis (Affymetrix PrimeView) and GSEA
Assay type: cell-based, human
Design: RFU PODN (11730768_x_at) / Fold change /veh PODN (11730768_x_at) / RFU LINC00158 (11744669_a_at) / Fold change /veh LINC00158 (11744669_a_at) / RFU DUSP10 (11751237_a_at) / Fold change /veh DUSP10 (11751237_a_at) / RFU ID3 (11757404_x_at) / Fold change /veh ID3 (11757404_x_at) / RFU PLEKHG5 (11737974_s_at) / Fold change /veh PLEKHG5 (11737974_s_at) / RFU LRRC4B (11730491_at) / Fold change /veh LRRC4B (11730491_at) / RFU GIMAP4 (11747438_a_at) / Fold change /veh GIMAP4 (11747438_a_at) / RFU KRT8 (11758183_x_at) / Fold change /veh KRT8 (11758183_x_at) / RFU CNN1 (11734310_a_at) / Fold change /veh CNN1 (11734310_a_at) / RFU VPS37D (11726825_at) / Fold change /veh VPS37D (11726825_at) / RFU C10orf10 (11716522_x_at) / Fold change /veh C10orf10 (11716522_x_at) / RFU KIR2DL2 /// KIR2DL4 /// KIR2DL5A /// KIR2DL5B /// KIR2DS1 /// KIR2DS2 /// KIR2DS3 /// KIR2DS4 /// KIR3DL3 /// KIR3DL3 /// KIR3DS1 (11738374_at) / Fold change /veh KIR2DL2 /// KIR2DL4 /// KIR2DL5A /// KIR2DL5B /// KIR2DS1 /// KIR2DS2 /// KIR2DS3 /// KIR2DS4 /// KIR3DL3 /// KIR3DL3 /// KIR3DS1 (11738374_at) / RFU C1QL1 (11718748_at) / Fold change /veh C1QL1 (11718748_at) / RFU TMPRSS4 (11747572_a_at) / Fold change /veh TMPRSS4 (11747572_a_at) / RFU HAMP (11756126_x_at) / Fold change /veh HAMP (11756126_x_at) / RFU RNFT2 (11725882_a_at) / Fold change /veh RNFT2 (11725882_a_at) / RFU NR4A2 (11747474_a_at) / Fold change /veh NR4A2 (11747474_a_at) / RFU ABCC12 (11746883_a_at) / Fold change /veh ABCC12 (11746883_a_at) / RFU TMEM136 (11760407_x_at) / Fold change /veh TMEM136 (11760407_x_at) / RFU CLDN22 /// WWC2 (11732394_at) / Fold change /veh CLDN22 /// WWC2 (11732394_at) / RFU HLA-DPB1 (11760878_x_at) / Fold change /veh HLA-DPB1 (11760878_x_at) / RFU SPINT1 (11716480_a_at) / Fold change /veh SPINT1 (11716480_a_at) / RFU GAP43 (11754022_s_at) / Fold change /veh GAP43 (11754022_s_at) / RFU A4GNT (11735810_at) / Fold change /veh A4GNT (11735810_at) / RFU PRB3 (11715151_x_at) / Fold change /veh PRB3 (11715151_x_at) / RFU TUBB4B (11761932_at) / Fold change /veh TUBB4B (11761932_at) / RFU CAPN14 (11732068_a_at) / Fold change /veh CAPN14 (11732068_a_at) / RFU TMCC2 (11721928_a_at) / Fold change /veh TMCC2 (11721928_a_at) / RFU IRGQ (11745062_a_at) / Fold change /veh IRGQ (11745062_a_at) / RFU FAM174B (11720279_a_at) / Fold change /veh FAM174B (11720279_a_at) / RFU TMPRSS4 (11748680_a_at) / Fold change /veh TMPRSS4 (11748680_a_at) / RFU FAM212B (11763350_a_at) / Fold change /veh FAM212B (11763350_a_at) / RFU PLEKHG5 (11743358_a_at) / Fold change /veh PLEKHG5 (11743358_a_at) / RFU ZSCAN30 (11745921_a_at) / Fold change /veh ZSCAN30 (11745921_a_at) / RFU CMKLR1 (11741424_a_at) / Fold change /veh CMKLR1 (11741424_a_at) / RFU LOC101060620 /// MAPK8IP1 (11723275_at) / Fold change /veh LOC101060620 /// MAPK8IP1 (11723275_at) / RFU SPTSSB (11747773_x_at) / Fold change /veh SPTSSB (11747773_x_at) / RFU PRSS12 (11739890_at) / Fold change /veh PRSS12 (11739890_at) / RFU BIN1 (11741810_x_at) / Fold change /veh BIN1 (11741810_x_at) / RFU WNT11 (11732464_a_at) / Fold change /veh WNT11 (11732464_a_at) / RFU C10orf10 (11716521_a_at) / Fold change /veh C10orf10 (11716521_a_at) / RFU C5orf56 (11738089_at) / Fold change /veh C5orf56 (11738089_at) / RFU CYB561 (11721691_x_at) / Fold change /veh CYB561 (11721691_x_at) / RFU ANKRD19P (11752326_a_at) / Fold change /veh ANKRD19P (11752326_a_at) / RFU OR2T12 /// OR2T33 /// OR2T8 (11738714_s_at) / Fold change /veh OR2T12 /// OR2T33 /// OR2T8 (11738714_s_at) / RFU VCAN (11748164_a_at) / Fold change /veh VCAN (11748164_a_at) / RFU JSRP1 (11732532_at) / Fold change /veh JSRP1 (11732532_at) / RFU KRTAP10-11 (11738290_x_at) / Fold change /veh KRTAP10-11 (11738290_x_at) / RFU MYO3A (11730013_a_at) / Fold change /veh MYO3A (11730013_a_at) / RFU EBF3 (11725865_a_at) / Fold change /veh EBF3 (11725865_a_at) / RFU CAMK2N1 (11719241_x_at) / Fold change /veh CAMK2N1 (11719241_x_at) / RFU C5orf56 (11738088_a_at) / Fold change /veh C5orf56 (11738088_a_at) / RFU OLFML3 (11715873_a_at) / Fold change /veh OLFML3 (11715873_a_at) / RFU LOC100653217 /// NTM (11731650_a_at) / Fold change /veh LOC100653217 /// NTM (11731650_a_at) / RFU MAPK11 (11762145_a_at) / Fold change /veh MAPK11 (11762145_a_at) / RFU FIZ1 (11724087_x_at) / Fold change /veh FIZ1 (11724087_x_at) / RFU OASL (11726364_x_at) / Fold change /veh OASL (11726364_x_at) / RFU SOX15 (11748057_x_at) / Fold change /veh SOX15 (11748057_x_at) / RFU CD79A (11719716_a_at) / Fold change /veh CD79A (11719716_a_at) / RFU HIST1H1D (11736915_at) / Fold change /veh HIST1H1D (11736915_at) / RFU CASKIN2 (11723855_a_at) / Fold change /veh CASKIN2 (11723855_a_at) / RFU LOC730098 (11760151_x_at) / Fold change /veh LOC730098 (11760151_x_at) / RFU OR4N2 (11742367_at) / Fold change /veh OR4N2 (11742367_at) / RFU PRRT2 (11749266_a_at) / Fold change /veh PRRT2 (11749266_a_at) / RFU SNX32 (11753110_a_at) / Fold change /veh SNX32 (11753110_a_at) / RFU CDHR5 (11726645_a_at) / Fold change /veh CDHR5 (11726645_a_at) / RFU RCAN1 (11760418_a_at) / Fold change /veh RCAN1 (11760418_a_at) / RFU FAM167A (11723789_a_at) / Fold change /veh FAM167A (11723789_a_at) / RFU FAM26E (11764081_at) / Fold change /veh FAM26E (11764081_at) / RFU ISYNA1 (11749810_s_at) / Fold change /veh ISYNA1 (11749810_s_at) / RFU ACY1 (11761880_at) / Fold change /veh ACY1 (11761880_at) / RFU 11764098_at / Fold change /veh 11764098_at / RFU SAMD14 (11745864_x_at) / Fold change /veh SAMD14 (11745864_x_at) / RFU NPB (11741838_a_at) / Fold change /veh NPB (11741838_a_at) / RFU TMPRSS6 (11731388_a_at) / Fold change /veh TMPRSS6 (11731388_a_at) / RFU KRTAP10-2 (11738614_at) / Fold change /veh KRTAP10-2 (11738614_at) / RFU ARHGAP8 /// PRR5-ARHGAP8 (11727945_x_at) / Fold change /veh ARHGAP8 /// PRR5-ARHGAP8 (11727945_x_at) / RFU KRTAP5-7 /// NADSYN1 (11734609_at) / Fold change /veh KRTAP5-7 /// NADSYN1 (11734609_at) / RFU RASL12 (11751679_a_at) / Fold change /veh RASL12 (11751679_a_at) / RFU CDKN2B (11736163_a_at) / Fold change /veh CDKN2B (11736163_a_at) / RFU PRF1 (11729649_at) / Fold change /veh PRF1 (11729649_at) / RFU, ZNF638 /// ZNF638-IT1 / Fold change vs veh, ZNF638 /// ZNF638-IT1 / RFU, PANK3 / Fold change vs veh, PANK3 / RFU, SH3YL1 / Fold change vs veh, SH3YL1 / RFU, ZEB2 / Fold change vs veh, ZEB2 / RFU, NRIP1 / Fold change vs veh, NRIP1 / RFU, PTTG1IP / Fold change vs veh, PTTG1IP / RFU, CAPN2 / Fold change vs veh, CAPN2 / RFU, MED14 / Fold change vs veh, MED14 / RFU, SNORA58 / Fold change vs veh, SNORA58 / RFU, C1orf63 / Fold change vs veh, C1orf63 / RFU, LRRFIP1 / Fold change vs veh, LRRFIP1 / RFU, NDUFAF7 / Fold change vs veh, NDUFAF7 / RFU, SLC12A2 / Fold change vs veh, SLC12A2 / RFU, IBTK / Fold change vs veh, IBTK / RFU, ESF1 / Fold change vs veh, ESF1 / Fold change vs veh, TMEM50B / RFU, TAOK1 / Fold change vs veh, TAOK1 / RFU, ACBD3 / Fold change vs veh, ACBD3 / RFU, TMA16 / Fold change vs veh, TMA16 / RFU, RWDD3 / Fold change vs veh, RWDD3 / RFU, BCAT1 / Fold change vs veh, BCAT1 / RFU, EDEM3 / Fold change vs veh, EDEM3 / RFU, TMEM33 / Fold change vs veh, TMEM33 / RFU, WDR75 / Fold change vs veh, WDR75 / RFU, AHCTF1 / Fold change vs veh, AHCTF1 / RFU, TFRC / Fold change vs veh, TFRC / RFU, ZDHHC17 / Fold change vs veh, ZDHHC17 / RFU, NOM1 / Fold change vs veh, NOM1 / RFU, ARL8B / Fold change vs veh, ARL8B / RFU, ZBTB11 / Fold change vs veh, ZBTB11 / RFU, TAMM41 / Fold change vs veh, TAMM41 / RFU, KIAA1704 /// LOC100996395 / Fold change vs veh, KIAA1704 /// LOC100996395 / RFU, ING1 / Fold change vs veh, ING1 / RFU, TRMT61B / Fold change vs veh, TRMT61B / RFU, FUBP3 / Fold change vs veh, FUBP3 / RFU, TP53 / Fold change vs veh, TP53 / RFU, TNKS2 / Fold change vs veh, TNKS2 / RFU, ZFP14 / Fold change vs veh, ZFP14 / RFU, ACTR2 / Fold change vs veh, ACTR2 / RFU, PPP3R1 / Fold change vs veh, PPP3R1 / RFU, PIK3R1 / Fold change vs veh, PIK3R1 / RFU, HNRNPA1 / Fold change vs veh, HNRNPA1 / RFU, RNF170 / Fold change vs veh, RNF170 / RFU, ZNF28 / Fold change vs veh, ZNF28 / RFU, RNGTT / Fold change vs veh, RNGTT / RFU, OGT / Fold change vs veh, OGT / RFU, BRD1 / Fold change vs veh, BRD1 / RFU, MARS / Fold change vs veh, MARS / RFU, ZNF655 / Fold change vs veh, ZNF655 / RFU, FAHD1 / Fold change vs veh, FAHD1 / RFU, BDP1 / Fold change vs veh, BDP1 / RFU, LRRCC1 / Fold change vs veh, LRRCC1 / RFU, ARID1A / Fold change vs veh, ARID1A / RFU, ZNF146 / Fold change vs veh, ZNF146 / RFU, ZNF330 / Fold change vs veh, ZNF330 / RFU, GPN3 / Fold change vs veh, GPN3 / RFU, C9orf123 / Fold change vs veh, C9orf123 / RFU, N4BP2L2 / Fold change vs veh, N4BP2L2 / RFU, ARFIP1 / Fold change vs veh, ARFIP1 / RFU, FAM179B / Fold change vs veh, FAM179B / RFU, BCL10 / Fold change vs veh, BCL10 / RFU, UHRF1BP1L / Fold change vs veh, UHRF1BP1L / RFU, BET1 / Fold change vs veh, BET1 / RFU, CNOT2 / Fold change vs veh, CNOT2 / RFU, ZNF268 / Fold change vs veh, ZNF268 / Fold change vs veh, ZNF507 / RFU, DGCR2 / Fold change vs veh, DGCR2 / RFU, WDSUB1 / Fold change vs veh, WDSUB1 / Fold change vs veh, HSP90B1 /// MIR3652 / RFU, ADSS / Fold change vs veh, ADSS / RFU, GK / Fold change vs veh, GK / RFU, ZNF148 / Fold change vs veh, ZNF148 / RFU, TAF9 / Fold change vs veh, TAF9 / RFU, SLC1A5 / Fold change vs veh, SLC1A5 / RFU, SLMO2 / Fold change vs veh, SLMO2 / RFU, ABCC4 / Fold change vs veh, ABCC4 / RFU, LOC101060439 /// RAP1B / Fold change vs veh, LOC101060439 /// RAP1B / RFU, RFX7 / Fold change vs veh, RFX7 / RFU, GTPBP10 / Fold change vs veh, GTPBP10 / RFU, CNEP1R1 / Fold change vs veh, CNEP1R1 / RFU, BIVM-ERCC5 /// ERCC5 / Fold change vs veh, BIVM-ERCC5 /// ERCC5 / RFU, ILF3 / Fold change vs veh, ILF3 / RFU 11762660_at / Fold change /veh 11762660_at / RFU VCAN (11757783_s_at) / Fold change /veh VCAN (11757783_s_at) / RFU DDX43 (11728927_at) / Fold change /veh DDX43 (11728927_at) / RFU KRT8 (11758188_x_at) / Fold change /veh KRT8 (11758188_x_at) / RFU NKD1 (11759106_at) / Fold change /veh NKD1 (11759106_at) / RFU SRD5A1 (11742802_a_at) / Fold change /veh SRD5A1 (11742802_a_at) / RFU TPSAB1 /// TPSB2 (11721975_s_at) / Fold change /veh TPSAB1 /// TPSB2 (11721975_s_at) / RFU GSTM3 (11746129_a_at) / Fold change /veh GSTM3 (11746129_a_at) / RFU IL23R (11737362_x_at) / Fold change /veh IL23R (11737362_x_at) / RFU TMEM51 (11727254_a_at) / Fold change /veh TMEM51 (11727254_a_at) / RFU PIWIL2 (11732686_x_at) / Fold change /veh PIWIL2 (11732686_x_at) / RFU ORM1 (11744905_x_at) / Fold change /veh ORM1 (11744905_x_at) / RFU CCDC152 (11743942_at) / Fold change /veh CCDC152 (11743942_at) / RFU ECM1 (11717891_a_at) / Fold change /veh ECM1 (11717891_a_at) / RFU IL23R (11748794_a_at) / Fold change /veh IL23R (11748794_a_at) / RFU TNFAIP8L3 (11732012_x_at) / Fold change /veh TNFAIP8L3 (11732012_x_at) / RFU MBOAT4 (11741988_at) / Fold change /veh MBOAT4 (11741988_at) / RFU 11764193_at / Fold change /veh 11764193_at / RFU TMEM53 (11763286_at) / Fold change /veh TMEM53 (11763286_at) / RFU MAGEB2 (11727129_at) / Fold change /veh MAGEB2 (11727129_at) / RFU TMEM200A (11744735_a_at) / Fold change /veh TMEM200A (11744735_a_at) / RFU CCDC152 (11751479_a_at) / Fold change /veh CCDC152 (11751479_a_at) / RFU FAM211A (11726209_a_at) / Fold change /veh FAM211A (11726209_a_at) / RFU RGS16 (11746705_a_at) / Fold change /veh RGS16 (11746705_a_at) / RFU VCAN (11755009_s_at) / Fold change /veh VCAN (11755009_s_at) / RFU RHOB (11743442_s_at) / Fold change /veh RHOB (11743442_s_at) / RFU RGS16 (11720943_a_at) / Fold change /veh RGS16 (11720943_a_at) / RFU RGS16 (11720944_at) / Fold change /veh RGS16 (11720944_at) / RFU, VPS4B / Fold change vs veh, VPS4B / RFU, CREB1 / Fold change vs veh, CREB1 / RFU, DNAJC13 / Fold change vs veh, DNAJC13 / RFU, GNAQ / Fold change vs veh, GNAQ / RFU, CDK5R1 / Fold change vs veh, CDK5R1 / RFU, ZRANB3 / Fold change vs veh, ZRANB3 / RFU, CUL4A / Fold change vs veh, CUL4A / RFU, CCNY / Fold change vs veh, CCNY / RFU, UFL1 / Fold change vs veh, UFL1 / RFU, COG3 / Fold change vs veh, COG3 / RFU, DIAPH2 / Fold change vs veh, DIAPH2 / RFU, SKA2 / Fold change vs veh, SKA2 / RFU, AFF3 / Fold change vs veh, AFF3 / RFU, LMF1 / Fold change vs veh, LMF1 / RFU, IPO11 / Fold change vs veh, IPO11 / RFU, DFFB / Fold change vs veh, DFFB / RFU, FOXP1 / Fold change vs veh, FOXP1 / RFU, CARD8 / Fold change vs veh, CARD8 / RFU, STRN3 / Fold change vs veh, STRN3 / RFU, ADK / Fold change vs veh, ADK / RFU, RASSF2 / Fold change vs veh, RASSF2 / RFU, WIPF1 / Fold change vs veh, WIPF1 / RFU, LARP1B / Fold change vs veh, LARP1B / RFU, RASA1 / Fold change vs veh, RASA1 / RFU, RB1 / Fold change vs veh, RB1 / RFU, PPFIA1 / Fold change vs veh, PPFIA1 / RFU, MAT2A / Fold change vs veh, MAT2A / RFU, CCT5 / Fold change vs veh, CCT5 / RFU, WDR92 / Fold change vs veh, WDR92 / RFU, CUX1 / Fold change vs veh, CUX1 / RFU, TTC7A / Fold change vs veh, TTC7A / RFU, TMEM135 / Fold change vs veh, TMEM135 / RFU, DEPTOR / Fold change vs veh, DEPTOR / RFU, CPM / Fold change vs veh, CPM / RFU, DNAJB6 / Fold change vs veh, DNAJB6 / RFU, CACNA2D3 / Fold change vs veh, CACNA2D3 / RFU, DTX4 / Fold change vs veh, DTX4 / RFU, TFCP2 / Fold change vs veh, TFCP2 / RFU, GMCL1 /// GMCL1P1 / Fold change vs veh, GMCL1 /// GMCL1P1 / RFU, AEBP2 / Fold change vs veh, AEBP2 / RFU, SNHG1 /// SNORD22 /// SNORD25 /// SNORD26 /// SNORD27 /// SNORD28 /// SNORD29 /// SNORD31 / Fold change vs veh, SNHG1 /// SNORD22 /// SNORD25 /// SNORD26 /// SNORD27 /// SNORD28 /// SNORD29 /// SNORD31 / Fold change (Aza/veh), C12orf56 (ProbeSet 11735607_a_at) / Fold change (ACY-1035/veh), C12orf56 (ProbeSet 11735607_a_at) / Fold change (Aza/veh), FGFR1OP (ProbeSet 11751329_s_at) / Fold change (ACY-1035/veh), FGFR1OP (ProbeSet 11751329_s_at) / Fold change (Aza/veh), VPS36 (ProbeSet 11739960_a_at) / Fold change (ACY-1035/veh), VPS36 (ProbeSet 11739960_a_at) / RFU SYPL1 (11715823_x_at) / Fold change /veh SYPL1 (11715823_x_at) / RFU IGFBP7 (11715501_s_at) / Fold change /veh IGFBP7 (11715501_s_at) / RFU REEP3 (11722064_at) / Fold change /veh REEP3 (11722064_at) / RFU IGLL1 (11728026_x_at) / Fold change /veh IGLL1 (11728026_x_at): dose or concentration left out as unconfirmed
Settings: ProbeSet 11743362_s_at; LIST B

With `Nc1ncn([C@@H]2O[C@H](CO)[C@@H](O)[C@H]2O)c(=O)n1` [azacitidine] the “RFU, ADSS” value was 624.28 RFU.
